# Test results: the supplement of paper PMC8183993
# Counter-ions that a name gives are not always drawn.
# Columns and labels:
# Settings in all cases: 24 h
# U2OS [1] = experiment: mean HPG incorporation (global translation) relative to DMSO (% of DMSO); higher = more protein synthesis
# Procedure: (§1)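 Validation screen in U2OS cells: hits tested at 1, 3 and 10 uM for 24 h in duplicate plates. Translation was read by OPP incorporation (1 h pulse) and HPG incorporation (30 min in methionine-free medium), quantified by high-throughput microscopy alongside nuclei counts. All values are normalised to DMSO (= 100).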
# U2OS [2] = experiment: nuclei count in OPP assay relative to DMSO (% of DMSO); higher = more viable cells
# Procedure: as §1
# U2OS [3] = experiment: mean OPP incorporation (global translation) relative to DMSO (% of DMSO); higher = more protein synthesis
# Procedure: as §1
# U2OS [4] = experiment: nuclei count in HPG assay relative to DMSO (% of DMSO); higher = more viable cells
# Procedure: as §1
Compound,mean HPG incorporation (U2OS [1]; 1 µM),mean HPG incorporation (U2OS [1]; 3 µM),mean HPG incorporation (U2OS [1]; 10 µM),nuclei count in OPP assay (U2OS [2]; 1 µM),nuclei count in OPP assay (U2OS [2]; 3 µM),nuclei count in OPP assay (U2OS [2]; 10 µM),mean OPP incorporation (U2OS [3]; 1 µM),mean OPP incorporation (U2OS [3]; 3 µM),mean OPP incorporation (U2OS [3]; 10 µM),nuclei count in HPG assay (U2OS [4]; 1 µM),nuclei count in HPG assay (U2OS [4]; 3 µM),nuclei count in HPG assay (U2OS [4]; 10 µM)
CC(C)n1nc(-c2ccc3oc(N)nc3c2)c2c(N)ncnc21 [INK 128 (MLN0128)],32.9,29.4,28.2,79.2,68.8,69.8,28.2,29.2,30,76,80.6,72.8
Cc1ccc(NC(=O)c2ccc(CN3CCN(C)CC3)cc2)cc1Nc1nccc(-c2cccnc2)n1 [Imatinib (STI571)],91.5,111,121,97.6,97.7,95.9,113,122,131,102,97.7,92.4
N#CC(c1ccnc(NCCc2cccnc2)n1)c1nc2ccccc2s1 (stereo unspecified) [JNK Inhibitor V],122,133,85.5,104,94.1,79.9,122,127,110,105,93.9,77
O=[N+]([O-])c1ccccc1S(=O)(=O)NCC1CCC(CNCC2CCc3ccccc3C2)CC1 (stereo unspecified) [NTNCB hydrochloride],98,104,56.8,101,98.3,74.4,106,115,110,95.8,90.7,87.6
Cn1cc(-c2ccc3ncc(Cc4ccc5ncccc5c4)n3n2)cn1 [NVP-BVU972],114,132,138,104,79.7,89.8,91,107,124,107,85.5,88.5
Cc1cn(-c2cc(NC(=O)c3ccc(C)c(Nc4nccc(-c5cccnc5)n4)c3)cc(C(F)(F)F)c2)cn1 [Nilotinib (AMN-107)],95,93.5,92.5,96.6,94.2,80.2,112,120,116,101,91.3,98.5
O=C(Nc1ccc(OC(F)(F)F)cc1)c1sccc1NCc1ccnc2ccccc12 [OSI-930],93.9,92.7,64.2,98,89.7,91.2,99.3,101,114,96.9,98.1,92
Cc1cc(CS(=O)(=O)c2ccccc2)cc(OCc2ccc(CN3CCC[C@@H]3CO)cc2)c1 [PF-543],97.1,81.9,89.6,104,98.9,94.3,111,117,130,102,99.2,92.2
